In US20260070891A1, “METHOD FOR PRODUCING QUINOXALINE DERIVATIVE” (Kyowa Kirin Co., Ltd., priority 2022, published 2026):

How the values were obtained:
[1] = Crystal form stability on standing at room temperature, rechecked by powder X-ray diffraction (Test Example 1); assay type: physicochemical; settings: allowed to stand for 8 weeks at room temperature
Description: In addition, the measurement of powder X-ray diffraction (reflection method) was performed by pulverizing a sample in an agate mortar, taking an appropriate amount of the sample into a sample plate, and measuring a diffraction peak such that a diffraction angle 20 includes a range of 5° to 40°. The X-ray to be radiated was a copper Ka ray (CuKα ray), and the tube voltage was set to 50 kV, the tube current was set to 1 mA, and the step time was set to 120 seconds. The thermal analysis was performed by taking 2 mg of the sample into an aluminum pan and measuring differential scanning calorimetry (DSC) under a condition of a heating rate of 5° C./min. For the measurement of powder X-ray diffraction (reflection method), D8 DISCOVER manufactured by Bruker AXS was used.
The type II crystal of (R)—N-(3-{2,2,2-trifluoro-1-[6-(2-methyl-2H-1,2,3-triazol-4-yl)pyridin-3-yl]ethoxy}quinoxalin-2-yl) propane-1-sulfonamide obtained in step 3 of Example 1 was allowed to stand for 8 weeks at room temperature.

[2] = Long-term storage stability of crystal at 25° C. and 60% RH (Test Example 1); assay type: physicochemical; settings: 25° C. and 60% RH for 5 years

| Compound | crystal form after standing (powder X-ray diffraction) [1] | stability (properties, related substances, optical isomers, content, powder X-ray diffraction pattern) [2] |
| --- | --- | --- |
| CCCS(=O)(=O)Nc1nc2ccccc2nc1O[C@H](c1ccc(-c2cnn(C)n2)nc1)C(F)(F)F [type II crystal, (R)—N-(3-{2,2,2-trifluoro-1-[6-(2-methyl-2H-1,2,3-triazol-4-yl)pyridin-3-yl]ethoxy}quinoxalin-2-yl) propane-1-sulfonamide] | transition to a mixed crystal of the type III crystal and the type II crystal | – |
| CCCS(=O)(=O)Nc1nc2ccccc2nc1O[C@H](c1ccc(-c2cnn(C)n2)nc1)C(F)(F)F [type III crystal, (R)—N-(3-{2,2,2-trifluoro-1-[6-(2-methyl-2H-1,2,3-triazol-4-yl)pyridin-3-yl]ethoxy}quinoxalin-2-yl)propane-1-sulfonamide] | – | no changes in the properties, related substances, optical isomers, content, or powder X-ray diffraction pattern |
